Laboratory results published in ChEMBL document CHEMBL1150497, “Imidazol-1-ylalkanoate esters and their corresponding acids. A novel series of extrinsic 1H NMR probes for intracellular pH” (Bioorg Med Chem Lett, 1992).

Experiment: pKa value by 1H NMR spectroscopy
Type: physicochemical

| Compound | pKa |
| --- | --- |
| CCOC(=O)CC(C(=O)O)n1ccnc1 (centres undefined) | 6.86 |
| CCOC(=O)CC(C(=O)OCC)n1ccnc1 (centres undefined) | 6.02 |
| COC(=O)Cn1ccnc1 | 7.1 |
| c1c[nH]cn1 [IMIDAZOLE] | 7.14 |

More lines, now with the values ahead:

| pKa | Compound |
| --- | --- |
| 7.23 | O=C(O)Cn1ccnc1 |
| 5.02 | CCOC(=O)C(C(=O)OCC)n1ccnc1 |
| 6.45 | CCOC(=O)CC(CC(=O)OCC)n1ccnc1 |
| 7.37 | O=C(O)CC(CC(=O)O)n1ccnc1 |
| 7.32 | O=C(O)CC(C(=O)O)n1ccnc1 (centres undefined) |
